{"source": "patent US20130236527A1", "about": "“LICORICE LOLLIPOP THAT INHIBITS DENTAL CARIES FORMATION” (INTELLIHERB, LLC, priority 2008, published 2013)", "key": {"S. mutans": {"system": "S. mutans", "assay": "anti-S. mutans bioactivity examination of extract batches", "format": "cell-based, Streptococcus mutans", "from_the_text": "In addition to chemical analysis, all batches, or statistically relevant samples of continuous production processes (e.g., 1/3600 candies; or 1/5000 candies; or 1/10,000 candies or the like) or statistically relevant samples of candy production batches (e.g., 1/10 batches; or 1/20 batches; or 1/50 batches), are examined for bioactivity. While the pure compound of glycyrrhizol A has anti-S. mutans activity at 1 microgram per ml, the mixed compound usually has anti-S. mutans activity at 10-30 microgram per ml."}, "bacterial adherence": {"system": "bacterial adherence", "assay": "inhibition of bacterial adherence / dental caries formation"}}}
{"smiles": "COc1c(CC=C(C)C)c(O)cc2c1-c1oc3cc(O)c(CC=C(C)C)cc3c1CO2", "note": "[Glycyrrhizol A]", "values": [{"measurement": "anti-S. mutans activity at (concentration)", "setting": "S. mutans", "result": 1, "unit": "microgram per ml"}]}
{"smiles": "CC1(C)[C@@H](O[C@H]2O[C@H](C(=O)O)[C@@H](O)[C@H](O)[C@H]2O[C@@H]2O[C@H](C(=O)O)[C@@H](O)[C@H](O)[C@H]2O)CC[C@]2(C)[C@H]3C(=O)C=C4[C@@H]5C[C@@](C)(C(=O)O)CC[C@]5(C)CC[C@@]4(C)[C@]3(C)CC[C@@H]12", "note": "[glycyrrhizin]", "values": [{"measurement": "inhibition of dental caries formation by inhibiting bacterial adherence", "setting": "bacterial adherence", "result": "can inhibit formation of dental caries by inhibiting bacterial adherence"}]}
